In PubChem BioAssay (NCI):
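Protocol summary: plate cells (96-well), add compound at 5 concentrations, incubate 48 h, interpolate endpoints linearly. GI50: concentration for 50% inhibition of growth. TGI: concentration producing complete growth inhibition.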

Key:
Experiment in all cases: inhibition of tumour cell growth, NCI panel, 48 h
[1] = system: 786-0 renal
[2] = system: A498 renal
[3] = system: A549 NSCLC
[4] = system: ACHN renal
[5] = system: BT-549 breast
[6] = system: CAKI-1 renal
[7] = system: CCRF-CEM leukemia
[8] = system: COLO 205 colon
[9] = system: DU-145 prostate
[10] = system: EKVX NSCLC
[11] = system: HCC-2998 colon
[12] = system: HCT-116 colon
[13] = system: HCT-15 colon
[14] = system: HL-60(TB) leukemia
[15] = system: HOP-62 NSCLC
[16] = system: HOP-92 NSCLC
[17] = system: HS 578T breast
[18] = system: IGROV1 ovarian
[19] = system: K-562 leukemia
[20] = system: KM12 colon
[21] = system: LOX IMVI melanoma
[22] = system: M14 melanoma
[23] = system: MALME-3M melanoma
[24] = system: MDA-MB-231 breast
[25] = system: MDA-MB-435
[26] = system: MOLT-4 leukemia
[27] = system: NCI-H23 lung
[28] = system: NCI-H460 lung
[29] = system: NCI-H522 lung
[30] = system: NCI/ADR-RES ovarian
[31] = system: OVCAR-3 ovarian
[32] = system: OVCAR-4 ovarian
[33] = system: OVCAR-5 ovarian
[34] = system: PC-3 prostate
[35] = system: RPMI-8226 leukemia
[36] = system: RXF 393 renal
[37] = system: SF-268 CNS
[38] = system: SF-295 CNS
[39] = system: SF-539 CNS
[40] = system: SK-MEL-2 melanoma
[41] = system: SK-MEL-28 melanoma
[42] = system: SK-MEL-5 melanoma
[43] = system: SK-OV-3 ovarian
[44] = system: SN12C renal
[45] = system: SNB-19 CNS
[46] = system: SNB-75 CNS
[47] = system: SR leukemia
[48] = system: SW-620 colon
[49] = system: T-47D breast
[50] = system: TK-10 renal
[51] = system: U251 CNS
[52] = system: UACC-257 melanoma
[53] = system: UACC-62 melanoma
[54] = system: UO-31 renal

C=C1CC[C@@H]2[C@](C)(COC(C)=O)[C@H](OC(C)=O)CC[C@@]2(C)[C@@H]1CC(Nc1ccc(S(=O)(=O)Nc2ccc(Cl)nn2)cc1)C1=CCOC1=O (stereo partly drawn)
GI50 [1]: 1690 nM
TGI [1]: 3140 nM
GI50 [2]: 1400 nM
TGI [2]: 4260 nM
GI50 [3]: 2960 nM
TGI [3]: 10700 nM
GI50 [4]: 1680 nM
TGI [4]: 3320 nM
GI50 [5]: 1580 nM
TGI [5]: 3140 nM
GI50 [6]: 2280 nM
TGI [6]: 10000 nM
GI50 [7]: 465 nM
TGI [7]: 2600 nM
GI50 [8]: 1460 nM
TGI [8]: 3160 nM
GI50 [9]: 1700 nM
TGI [9]: 3450 nM
GI50 [10]: 4530 nM
TGI [10]: 17000 nM
GI50 [11]: 1840 nM
TGI [11]: 3860 nM
GI50 [12]: 1080 nM
TGI [12]: 2320 nM
GI50 [13]: 882 nM
TGI [13]: 2300 nM
GI50 [14]: 1320 nM
TGI [14]: 4440 nM
GI50 [15]: 1460 nM
TGI [15]: 2990 nM
GI50 [16]: 2700 nM
TGI [16]: 7890 nM
GI50 [17]: 6170 nM
TGI [17]: > 100000 nM
GI50 [18]: 2080 nM
TGI [18]: 5000 nM
GI50 [19]: 526 nM
TGI [19]: 5190 nM
GI50 [20]: 1700 nM
TGI [20]: 3490 nM
GI50 [21]: 295 nM
TGI [21]: 1190 nM
GI50 [22]: 1450 nM
TGI [22]: 3410 nM
GI50 [23]: 1720 nM
TGI [23]: 3900 nM
GI50 [24]: 1900 nM
TGI [24]: 3960 nM
GI50 [25]: 1400 nM
TGI [25]: 3170 nM
GI50 [26]: 1960 nM
TGI [26]: > 100000 nM
GI50 [27]: 2060 nM
TGI [27]: 5350 nM
GI50 [28]: 2030 nM
TGI [28]: 4310 nM
GI50 [29]: 754 nM
TGI [29]: 2100 nM
GI50 [30]: 1870 nM
TGI [30]: 6200 nM
GI50 [31]: 1220 nM
TGI [31]: 2510 nM
GI50 [32]: 1470 nM
TGI [32]: 3170 nM
GI50 [33]: 2010 nM
TGI [33]: 4160 nM
GI50 [34]: 2240 nM
TGI [34]: 5250 nM
GI50 [35]: 445 nM
TGI [35]: 3040 nM
GI50 [36]: 1770 nM
TGI [36]: 3290 nM
GI50 [37]: 1800 nM
TGI [37]: 3670 nM
GI50 [38]: 3280 nM
TGI [38]: 12600 nM
GI50 [39]: 1230 nM
TGI [39]: 2630 nM
GI50 [40]: 1770 nM
TGI [40]: 3990 nM
GI50 [41]: 1680 nM
TGI [41]: 3460 nM
GI50 [42]: 1600 nM
TGI [42]: 3130 nM
GI50 [43]: 4050 nM
TGI [43]: 12300 nM
GI50 [44]: 1250 nM
TGI [44]: 3660 nM
GI50 [45]: 1910 nM
TGI [45]: 3910 nM
GI50 [46]: 1440 nM
TGI [46]: 5900 nM
GI50 [47]: 1350 nM
TGI [47]: 8100 nM
GI50 [48]: 1070 nM
TGI [48]: 2800 nM
GI50 [49]: 1510 nM
TGI [49]: 4250 nM
GI50 [50]: 2130 nM
TGI [50]: 4190 nM
GI50 [51]: 1680 nM
TGI [51]: 3050 nM
GI50 [52]: 1670 nM
TGI [52]: 3890 nM
GI50 [53]: 1490 nM
TGI [53]: 3860 nM
GI50 [54]: 1450 nM
TGI [54]: 2880 nM
